Columns and labels:
α-glucosidase [1] = conditions: in words; valiolamine and N-substituted valiolamine derivatives (European Patent Publication No. 56194 and 89812); cited from earlier work
Solubility in solvents = type: physicochemical; conditions: for solubility in water: in words, for isolation and purification
Rhizoctonia solanii = assay: minimum concentration causing the abnormal branching at the tops of hypha of Rhizoctonia solanii; type: cell-based; conditions: method: J. Antibiotics 24,114-118 (1971)
Experimental: For example, the minimum concentration causing the abnormal branching at the tops of hypha of Rhizoctonia solanii [See J. Antibiotics 24,114-118 (1971)}was 0.5 μg/mL for VM-G and 2.5 μg/mL for VA-G.

[2] = tested on: sheath blight of the rice plant; assay: activity against the sheath blight of the rice plant (stated in words); conditions: VA-G and VM-G
α-glucosidase [3] = assay: α-glucosidase-inhibiting activity (stated in words); type: biochemical; conditions: VA-G and VM-G
[4] = molecular target: T1, sucrase from porcine small intestine (Sus scrofa, UniProt P56729); assay: inhibition of sucrase from porcine small intestine (substrate 50 mM sucrose); type: biochemical; conditions: read-out: IC50 (molarity required for 50% inhibition of the enzymatic activity) against sucrase
T1 construct: sucrase from porcine small intestine; from tissue; host or cells: porcine small intestine

[5] = in ethanol, ethyl acetate, chloroform, and acetone
[6] = in water, dimethylsulfoxide, and methanol

T1 sequence (P56729 with tags, fused parts or gaps limits assumed): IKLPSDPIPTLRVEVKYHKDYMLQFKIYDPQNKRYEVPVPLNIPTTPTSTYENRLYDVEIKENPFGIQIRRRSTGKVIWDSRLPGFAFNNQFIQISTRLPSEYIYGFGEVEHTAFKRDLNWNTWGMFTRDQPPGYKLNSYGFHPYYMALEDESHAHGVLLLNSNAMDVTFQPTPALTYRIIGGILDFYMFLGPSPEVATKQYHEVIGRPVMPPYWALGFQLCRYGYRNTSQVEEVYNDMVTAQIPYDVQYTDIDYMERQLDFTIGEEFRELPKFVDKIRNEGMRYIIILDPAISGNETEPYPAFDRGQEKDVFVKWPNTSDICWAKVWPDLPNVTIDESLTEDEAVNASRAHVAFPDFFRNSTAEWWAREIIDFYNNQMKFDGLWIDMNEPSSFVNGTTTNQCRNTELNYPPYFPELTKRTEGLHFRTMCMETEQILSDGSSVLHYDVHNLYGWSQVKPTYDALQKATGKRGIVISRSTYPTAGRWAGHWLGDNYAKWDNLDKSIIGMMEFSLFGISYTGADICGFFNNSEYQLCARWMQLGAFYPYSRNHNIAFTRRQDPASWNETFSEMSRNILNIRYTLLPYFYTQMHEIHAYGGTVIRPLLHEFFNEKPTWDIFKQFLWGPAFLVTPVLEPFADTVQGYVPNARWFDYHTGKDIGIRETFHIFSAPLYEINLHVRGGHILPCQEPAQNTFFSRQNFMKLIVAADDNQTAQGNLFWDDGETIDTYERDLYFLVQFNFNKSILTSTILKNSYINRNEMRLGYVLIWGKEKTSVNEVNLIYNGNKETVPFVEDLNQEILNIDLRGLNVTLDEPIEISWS
T1 sequence (P56729 with tags, fused parts or gaps partner limits assumed): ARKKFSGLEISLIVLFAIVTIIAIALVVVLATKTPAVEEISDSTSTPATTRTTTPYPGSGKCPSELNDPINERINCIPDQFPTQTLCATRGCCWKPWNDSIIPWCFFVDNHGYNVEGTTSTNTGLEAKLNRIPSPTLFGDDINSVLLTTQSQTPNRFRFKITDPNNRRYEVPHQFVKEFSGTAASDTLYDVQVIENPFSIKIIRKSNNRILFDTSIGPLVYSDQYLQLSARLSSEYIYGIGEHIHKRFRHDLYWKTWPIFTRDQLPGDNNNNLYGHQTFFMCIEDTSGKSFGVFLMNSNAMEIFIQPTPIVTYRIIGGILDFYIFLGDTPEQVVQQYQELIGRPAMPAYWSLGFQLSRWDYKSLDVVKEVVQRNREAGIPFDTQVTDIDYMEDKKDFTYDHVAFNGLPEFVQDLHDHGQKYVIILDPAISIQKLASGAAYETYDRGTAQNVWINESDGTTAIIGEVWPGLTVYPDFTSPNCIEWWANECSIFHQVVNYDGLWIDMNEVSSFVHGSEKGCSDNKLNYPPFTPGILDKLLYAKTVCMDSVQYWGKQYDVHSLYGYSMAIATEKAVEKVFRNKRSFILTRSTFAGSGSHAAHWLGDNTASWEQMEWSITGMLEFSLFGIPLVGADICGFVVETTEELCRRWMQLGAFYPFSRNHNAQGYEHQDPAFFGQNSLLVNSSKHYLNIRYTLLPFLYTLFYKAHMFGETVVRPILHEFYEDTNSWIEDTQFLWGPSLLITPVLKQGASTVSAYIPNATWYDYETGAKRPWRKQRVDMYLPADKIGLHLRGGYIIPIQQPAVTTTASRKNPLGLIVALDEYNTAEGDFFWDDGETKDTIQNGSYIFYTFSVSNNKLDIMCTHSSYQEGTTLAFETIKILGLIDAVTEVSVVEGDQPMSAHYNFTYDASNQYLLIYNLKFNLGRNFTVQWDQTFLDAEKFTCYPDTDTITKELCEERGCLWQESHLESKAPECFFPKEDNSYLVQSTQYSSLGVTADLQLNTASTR

Row | Compound | α-glucosidase-inhibitory action (α-glucosidase [1]) | also measured
1 | OC[C@@]1(O)C[C@H](NCCc2ccccc2)[C@H](O)[C@@H](O)[C@@H]1O [(1), N-phenethylvaliolamine] | potent α-glucosidase-inhibitory action | –
2 | OC[C@@]1(O)C[C@H](NCC=Cc2ccccc2)[C@H](O)[C@@H](O)[C@@H]1O [(2), N-(3-phenylallyl)valiolamine] | potent α-glucosidase-inhibitory action | –
3 | OC[C@@]1(O)C[C@H](NCc2ccco2)[C@H](O)[C@@H](O)[C@@H]1O [(3), N-furfurylvaliolamine] | potent α-glucosidase-inhibitory action | –
4 | OC[C@@]1(O)C[C@H](NCc2cccs2)[C@H](O)[C@@H](O)[C@@H]1O [(4), N-thenylvaliolamine] | potent α-glucosidase-inhibitory action | –
5 | OC[C@@]1(O)C[C@H](NCc2cccnc2)[C@H](O)[C@@H](O)[C@@H]1O [(5), N-(3-pyridylmethyl)valiolamine] | potent α-glucosidase-inhibitory action | –
6 | OC[C@@]1(O)C[C@H](NCc2ccc(Br)cc2)[C@H](O)[C@@H](O)[C@@H]1O [(6), N-(4-bromobenzyl)valiolamine] | potent α-glucosidase-inhibitory action | –
7 | OC[C@@]1(O)C[C@H](NC[C@H](O)c2ccccc2)[C@H](O)[C@@H](O)[C@@H]1O [(7), N-[(R)-β-hydroxyphenethyl]valiolamine] | potent α-glucosidase-inhibitory action | –
8 | OC[C@@]1(O)C[C@H](NC[C@@H](O)c2ccccc2)[C@H](O)[C@@H](O)[C@@H]1O [(8), N-[(S)-β-hydroxyphenethyl]valiolamine] | potent α-glucosidase-inhibitory action | –
9 | COc1ccccc1C(O)CN[C@H]1C[C@](O)(CO)[C@@H](O)[C@H](O)[C@H]1O (stereo partly drawn) [(9), N-(β-hydroxy-2-methoxyphenethyl)valiolamine] | potent α-glucosidase-inhibitory action | –
10 | CC(C)(C)c1cc(CN[C@H]2C[C@](O)(CO)[C@@H](O)[C@H](O)[C@H]2O)cc(C(C)(C)C)c1O [(10), N-(3,5-di-tert-butyl-4-hydroxybenzyl)valiolamine] | potent α-glucosidase-inhibitory action | –
11 | OC[C@@]1(O)C[C@H](NCC2CCCCC2)[C@H](O)[C@@H](O)[C@@H]1O [(11), N-(cyclohexylmethyl)valiolamine] | potent α-glucosidase-inhibitory action | –
12 | CC(C)=CCC/C(C)=C/CN[C@H]1C[C@](O)(CO)[C@@H](O)[C@H](O)[C@H]1O [(12), N-geranylvaliolamine] | potent α-glucosidase-inhibitory action | –
13 | OCC(CO)N[C@H]1C[C@](O)(CO)[C@@H](O)[C@H](O)[C@H]1O [(13), N-(1,3-dihydroxy-2-propyl)valiolamine] | potent α-glucosidase-inhibitory action | –
14 | OCC(N[C@H]1C[C@](O)(CO)[C@@H](O)[C@H](O)[C@H]1O)C(O)c1ccccc1 (stereo partly shown) [(14), N-(1,3-dihydroxy-1-phenyl-2-propyl)valiolamine] | potent α-glucosidase-inhibitory action | –
15 | OC[C@H](N[C@H]1C[C@](O)(CO)[C@@H](O)[C@H](O)[C@H]1O)c1ccccc1 [(15), N-[(R)-o-(hydroxymethyl)benzyl]valiolamine] | potent α-glucosidase-inhibitory action | –
16 | OC[C@@]1(O)C[C@H](NC2CCCCC2)[C@H](O)[C@@H](O)[C@@H]1O [(16), N-cyclohexylvaliolamine] | potent α-glucosidase-inhibitory action | –

Row | Compound | α-glucosidase-inhibitory action (α-glucosidase [1]) | also measured
17 | OC[C@@]1(O)C[C@H](NC2CCCCC2O)[C@H](O)[C@@H](O)[C@@H]1O (stereo partly shown) [(17), N-(2-hydroxycyclohexyl)valiolamine] | potent α-glucosidase-inhibitory action | –
18 | OC[C@@]1(O)C[C@H](N[C@@H]2CCCC[C@H]2O)[C@H](O)[C@@H](O)[C@@H]1O [(18), N-[(1R,2R)-2-hydroxycyclohexyl]valiolamine] | potent α-glucosidase-inhibitory action | –
19 | OC[C@@]1(O)C[C@H](NC2CCCC2O)[C@H](O)[C@@H](O)[C@@H]1O (stereo partly shown) [(19), N-(2-hydroxycyclopentyl)valiolamine] | potent α-glucosidase-inhibitory action | –
20 | CO[C@H]1O[C@H](C)[C@@H](N[C@H]2C[C@](O)(CO)[C@@H](O)[C@H](O)[C@H]2O)[C@H](O)[C@H]1O [(20), Methyl 4-[(1S,2S)-(2,4,5(OH)/3,5)-2,3,4,5-tetrahydroxy-5-(hydroxymethyl)cyclohexyl]amino-4,6-dideoxy-α-D-glucopyranoside] | potent α-glucosidase-inhibitory action | –
21 | N[C@H]1C[C@H](CO)[C@@H](N[C@H]2C[C@](O)(CO)[C@@H](O)[C@H](O)[C@H]2O)[C@H](O)[C@H]1O [(22), [(1S,2S)-(2,4,5(OH)/3,5)-2,3,4,5-tetrahydroxy-5-(hydroxymethyl)cyclohexyl][(1R,2S)-(2,6/3,4)-4-amino-2,3-dihydroxy-6-(hydroxymethyl)cyclohexyl]-amine] | potent α-glucosidase-inhibitory action | –
22 | OC[C@H]1C[C@@H](N[C@H]2C[C@](O)(CO)[C@@H](O)[C@H](O)[C@H]2O)[C@H](O)[C@@H](O)[C@@H]1O [(23), N-[(1R,2S)-(2,4/3,5)-2,3,4-trihydroxy-5-(hydroxymethyl)cyclohexyl]valiolamine] | potent α-glucosidase-inhibitory action | –
23 | C[C@H]1C[C@H](N)[C@H](O)[C@@H](O)[C@@H]1N[C@H]1C[C@](O)(CO)[C@@H](O)[C@H](O)[C@H]1O [(24), N-[(1R,2S)-(2,6/3,4)-4-amino-2,3-dihydroxy-6-methylcyclohexyl]valiolamine] | potent α-glucosidase-inhibitory action | –
24 | C[C@H]1C[C@H](O)[C@H](O)[C@@H](O)[C@@H]1N[C@H]1C[C@](O)(CO)[C@@H](O)[C@H](O)[C@H]1O [(25), N-[(1R,2S)-(2,6/3,4)-2,3,4-trihydroxy-6-methylcyclohexyl]valiolamine] | potent α-glucosidase-inhibitory action | –
25 | C[C@H]1C[C@@H](O)[C@H](O)[C@@H](O)[C@@H]1N[C@H]1C[C@](O)(CO)[C@@H](O)[C@H](O)[C@H]1O [(26), N-[(1R,2S)-(2,4,6/3)-2,3,4-trihydroxy-6-methylcyclohexyl]valiolamine] | potent α-glucosidase-inhibitory action | –
26 | C[C@H]1O[C@H](O[C@H]2[C@H](O)[C@@H](O)C(O)O[C@@H]2CO)[C@H](O)[C@@H](O)[C@@H]1N[C@H]1C[C@](O)(CO)[C@@H](O)[C@H](O)[C@H]1O (stereo partly drawn) [(27), 4-O-α-[4-[[(1S)-(1,2,4,5(OH)/3,5)-2,3,4,5-tetrahydroxy-5-(hydroxymethyl)cyclohexyl]amino]-4,6-dideoxy-D-glucopyranosyl]-D-glucopyranose] | potent α-glucosidase-inhibitory action | –
27 | C[C@H]1O[C@H](O[C@H]2[C@H](O)[C@@H](O)[C@@H]3OC[C@H]2O3)[C@H](O)[C@@H](O)[C@@H]1N[C@H]1C[C@](O)(CO)[C@@H](O)[C@H](O)[C@H]1O [(28)] | potent α-glucosidase-inhibitory action | –
28 | OCC1=C[C@H](N[C@H]2C[C@](O)(CO)[C@@H](O)[C@H](O)[C@H]2O)[C@H](O)[C@@H](O)[C@@H]1O [VA-G, validoxylamine G] | – | Solubility in solvents (Solubility in solvents; [5]): Slightly soluble or insoluble; Solubility in solvents (Solubility in solvents; [6]): Soluble; solubility in water (Solubility in solvents): water-soluble basic substances; minimal effective concentration (Rhizoctonia solanii): 2.5 µg/mL; activity against the sheath blight of the rice plant [2]: an activity against the sheath blight of the rice plant; α-glucosidase-inhibiting activity (α-glucosidase [3]): α-glucosidase-inhibiting activity; IC50 [4]: 8.8 µM
29 | OCC1=C[C@H](N[C@H]2C[C@](O)(CO)[C@@H](O[C@@H]3O[C@H](CO)[C@@H](O)[C@H](O)[C@H]3O)[C@H](O)[C@H]2O)[C@H](O)[C@@H](O)[C@@H]1O [VM-G, validamycin G] | – | Solubility in solvents (Solubility in solvents; [5]): Slightly soluble or insoluble; Solubility in solvents (Solubility in solvents; [6]): Soluble; solubility in water (Solubility in solvents): water-soluble basic substances; minimal effective concentration (Rhizoctonia solanii): 0.5 µg/mL; activity against the sheath blight of the rice plant [2]: an activity against the sheath blight of the rice plant; α-glucosidase-inhibiting activity (α-glucosidase [3]): α-glucosidase-inhibiting activity; IC50 [4]: 110 µM
30 | N[C@H]1C[C@](O)(CO)[C@@H](O)[C@H](O)[C@H]1O [Valiolamine, valiolamine] | potent α-glucosidase-inhibitor | –
31 | Methyl 4-[(1S,2S)-(2,4,5(OH)/3,5)-2,3,4,5-deoxy-α-D-glucopyranoside [(21)] | potent α-glucosidase-inhibitory action | –

From patent publication US4923975A, “Valiolamine derivatives and production thereof” (Takeda Chemical Industries, Ltd., priority 1985, dated 1990)
